Experiments:
Design in all cases: Invitrogen kinase panel, per cent inhibition of kinase activity
Conditions in all cases: 10 µM, inhibitor
PAK4 = PAK4 (Homo sapiens, UniProt O96013)
Protocol: (§1) To discover a potent and selective BDK inhibitor, a subset of the Pfizer compound collection was screened. […] Off target activity was assessed in both CEREP and kinase panels (Supplementary Tables 2, 3).

PIM2 = PIM2 (Homo sapiens, UniProt Q9P1W9)
Protocol: as §1

ABL1 = ABL1 (Homo sapiens, UniProt P00519)
Protocol: as §1

Rsk1 = target: T1, Rsk1 (Homo sapiens, UniProt Q15418)
T1 construct: gene RPS6KA1
Outline: (§2)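 Compounds from a BDK inhibitor screen were counter-screened for off-target activity in a kinase panel.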

Misshapen-like Kinase 1 = target: T2, Misshapen-like Kinase 1 (Homo sapiens, UniProt Q8N4C8)
T2 construct: gene MINK1
Outline: as §2

JNK2 = target: T3, JNK2 (Homo sapiens, UniProt P45984)
T3 construct: gene MAPK9
Protocol: as §1

[1] = target: T4, IkB kinase beta subunit (IKK BETA) (Homo sapiens, UniProt O14920)
T4 construct: gene IKBKB
Outline: as §2

NUAK1 = NUAK1 (Homo sapiens, UniProt O60285)
Outline: as §2

AURKA = target: T5, AURKA (Homo sapiens, UniProt O14965)
T5 sequence (O14965 1-403): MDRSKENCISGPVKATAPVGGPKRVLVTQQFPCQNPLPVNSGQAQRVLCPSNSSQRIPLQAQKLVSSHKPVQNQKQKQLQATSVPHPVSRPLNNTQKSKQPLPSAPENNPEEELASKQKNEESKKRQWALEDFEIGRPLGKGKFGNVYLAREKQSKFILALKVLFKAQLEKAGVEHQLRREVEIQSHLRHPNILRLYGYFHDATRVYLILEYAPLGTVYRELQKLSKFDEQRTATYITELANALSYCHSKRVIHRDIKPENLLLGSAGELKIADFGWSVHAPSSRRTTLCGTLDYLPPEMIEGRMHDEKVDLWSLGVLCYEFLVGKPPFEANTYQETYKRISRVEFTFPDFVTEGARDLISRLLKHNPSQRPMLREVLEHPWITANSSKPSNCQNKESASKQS
Protocol: as §1

MAPK1 = MAPK1 (Homo sapiens, UniProt P28482)
Protocol: as §1

[2] = target: T6, Phosphorylase B kinase gamma catalytic chain skeletal muscle isoform (Homo sapiens, UniProt Q16816)
T6 construct: gene PHKG1
Protocol: as §1

PIK3CB = PIK3CB (Homo sapiens, UniProt P42338)
Outline: as §2

CSNK2A2 = CSNK2A2 (Homo sapiens, UniProt P19784)
Protocol: as §1

CKI-delta = target: T7, CKI-delta (Homo sapiens, UniProt P48730)
T7 construct: gene CSNK1D
Outline: as §2

ROCK2 = ROCK2 (Homo sapiens, UniProt O75116)
Outline: as §2

IRAK4 = target: T8, IRAK4 (Homo sapiens, UniProt Q9NWZ3)
T8 sequence (Q9NWZ3 1-460): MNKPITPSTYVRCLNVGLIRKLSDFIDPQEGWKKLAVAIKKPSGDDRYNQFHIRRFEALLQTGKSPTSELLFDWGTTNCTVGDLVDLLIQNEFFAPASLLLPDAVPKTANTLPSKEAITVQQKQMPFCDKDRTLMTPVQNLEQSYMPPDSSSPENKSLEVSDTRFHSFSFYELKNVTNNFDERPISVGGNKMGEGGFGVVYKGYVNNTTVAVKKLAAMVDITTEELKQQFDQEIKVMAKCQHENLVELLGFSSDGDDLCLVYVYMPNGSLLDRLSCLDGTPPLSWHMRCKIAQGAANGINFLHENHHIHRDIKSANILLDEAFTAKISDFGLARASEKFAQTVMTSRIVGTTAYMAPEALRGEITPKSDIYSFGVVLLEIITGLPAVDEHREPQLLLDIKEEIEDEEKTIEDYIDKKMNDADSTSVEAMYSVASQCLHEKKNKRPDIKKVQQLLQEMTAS
Protocol: as §1

LCK = LCK (Homo sapiens, UniProt P06239)
Protocol: as §1

CHEK2 = CHEK2 (Homo sapiens, UniProt O96017)
Protocol: as §1

MARK3 = MARK3 (Homo sapiens, UniProt P27448)
Outline: as §2

Sequence of CHEK2 (O96017 whole entry): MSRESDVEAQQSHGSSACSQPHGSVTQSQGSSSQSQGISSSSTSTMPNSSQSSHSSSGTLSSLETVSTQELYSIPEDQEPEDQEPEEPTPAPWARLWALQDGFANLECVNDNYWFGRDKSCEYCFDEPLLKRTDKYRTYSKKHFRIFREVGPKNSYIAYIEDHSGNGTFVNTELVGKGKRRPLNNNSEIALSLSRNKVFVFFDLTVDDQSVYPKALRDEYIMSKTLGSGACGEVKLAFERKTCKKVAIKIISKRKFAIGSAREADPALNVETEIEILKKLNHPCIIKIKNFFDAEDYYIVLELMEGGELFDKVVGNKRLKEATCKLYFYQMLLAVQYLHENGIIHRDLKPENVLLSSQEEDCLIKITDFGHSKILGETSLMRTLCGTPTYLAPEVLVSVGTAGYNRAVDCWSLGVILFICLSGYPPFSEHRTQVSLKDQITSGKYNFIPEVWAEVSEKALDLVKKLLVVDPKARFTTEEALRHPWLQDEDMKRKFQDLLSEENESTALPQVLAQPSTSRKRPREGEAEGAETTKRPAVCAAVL
Sequence of PIM2 (Q9P1W9 whole entry): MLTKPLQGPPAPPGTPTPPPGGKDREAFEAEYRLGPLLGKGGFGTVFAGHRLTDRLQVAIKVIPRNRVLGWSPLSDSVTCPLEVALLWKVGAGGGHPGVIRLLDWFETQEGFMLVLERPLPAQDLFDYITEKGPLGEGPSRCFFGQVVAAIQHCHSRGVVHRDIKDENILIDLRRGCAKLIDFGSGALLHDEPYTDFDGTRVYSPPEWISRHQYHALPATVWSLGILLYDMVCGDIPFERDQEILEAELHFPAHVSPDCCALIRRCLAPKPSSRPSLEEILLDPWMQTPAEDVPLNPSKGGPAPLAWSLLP
Sequence of LCK (P06239 whole entry): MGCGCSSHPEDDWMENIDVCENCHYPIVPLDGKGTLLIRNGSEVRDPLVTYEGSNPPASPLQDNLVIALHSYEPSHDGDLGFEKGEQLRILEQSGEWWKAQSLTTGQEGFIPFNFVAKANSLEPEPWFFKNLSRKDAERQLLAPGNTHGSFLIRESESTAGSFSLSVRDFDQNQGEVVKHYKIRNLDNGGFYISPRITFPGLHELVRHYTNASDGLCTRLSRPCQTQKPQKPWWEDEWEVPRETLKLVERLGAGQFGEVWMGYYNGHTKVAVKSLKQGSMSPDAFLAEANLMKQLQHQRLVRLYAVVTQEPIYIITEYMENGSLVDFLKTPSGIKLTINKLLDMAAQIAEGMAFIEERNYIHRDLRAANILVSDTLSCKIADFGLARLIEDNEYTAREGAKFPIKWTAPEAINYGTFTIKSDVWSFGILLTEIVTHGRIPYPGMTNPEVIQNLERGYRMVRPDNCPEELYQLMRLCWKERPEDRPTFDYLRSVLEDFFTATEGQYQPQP
Sequence of CSNK2A2 (P19784 whole entry): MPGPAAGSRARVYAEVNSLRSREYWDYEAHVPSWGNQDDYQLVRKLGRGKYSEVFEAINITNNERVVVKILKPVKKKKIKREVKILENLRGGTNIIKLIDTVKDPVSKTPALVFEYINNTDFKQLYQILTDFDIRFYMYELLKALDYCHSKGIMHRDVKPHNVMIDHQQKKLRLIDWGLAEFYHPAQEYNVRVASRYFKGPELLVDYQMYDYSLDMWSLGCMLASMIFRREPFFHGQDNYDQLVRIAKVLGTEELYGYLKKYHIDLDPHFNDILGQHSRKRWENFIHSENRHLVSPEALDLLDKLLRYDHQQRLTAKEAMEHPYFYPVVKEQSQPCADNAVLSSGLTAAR
Sequence of MAPK1 (P28482 whole entry): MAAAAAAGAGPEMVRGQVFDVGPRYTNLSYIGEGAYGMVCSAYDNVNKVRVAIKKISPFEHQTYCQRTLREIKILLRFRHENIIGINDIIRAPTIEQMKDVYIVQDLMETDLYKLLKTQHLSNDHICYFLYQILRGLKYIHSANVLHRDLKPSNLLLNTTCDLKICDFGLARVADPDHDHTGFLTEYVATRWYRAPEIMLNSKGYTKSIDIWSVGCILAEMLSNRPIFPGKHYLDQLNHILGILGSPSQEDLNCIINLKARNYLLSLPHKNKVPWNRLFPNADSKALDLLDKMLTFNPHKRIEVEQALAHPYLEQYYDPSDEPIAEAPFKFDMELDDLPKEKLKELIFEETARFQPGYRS
Sequence of ABL1 (P00519 whole entry): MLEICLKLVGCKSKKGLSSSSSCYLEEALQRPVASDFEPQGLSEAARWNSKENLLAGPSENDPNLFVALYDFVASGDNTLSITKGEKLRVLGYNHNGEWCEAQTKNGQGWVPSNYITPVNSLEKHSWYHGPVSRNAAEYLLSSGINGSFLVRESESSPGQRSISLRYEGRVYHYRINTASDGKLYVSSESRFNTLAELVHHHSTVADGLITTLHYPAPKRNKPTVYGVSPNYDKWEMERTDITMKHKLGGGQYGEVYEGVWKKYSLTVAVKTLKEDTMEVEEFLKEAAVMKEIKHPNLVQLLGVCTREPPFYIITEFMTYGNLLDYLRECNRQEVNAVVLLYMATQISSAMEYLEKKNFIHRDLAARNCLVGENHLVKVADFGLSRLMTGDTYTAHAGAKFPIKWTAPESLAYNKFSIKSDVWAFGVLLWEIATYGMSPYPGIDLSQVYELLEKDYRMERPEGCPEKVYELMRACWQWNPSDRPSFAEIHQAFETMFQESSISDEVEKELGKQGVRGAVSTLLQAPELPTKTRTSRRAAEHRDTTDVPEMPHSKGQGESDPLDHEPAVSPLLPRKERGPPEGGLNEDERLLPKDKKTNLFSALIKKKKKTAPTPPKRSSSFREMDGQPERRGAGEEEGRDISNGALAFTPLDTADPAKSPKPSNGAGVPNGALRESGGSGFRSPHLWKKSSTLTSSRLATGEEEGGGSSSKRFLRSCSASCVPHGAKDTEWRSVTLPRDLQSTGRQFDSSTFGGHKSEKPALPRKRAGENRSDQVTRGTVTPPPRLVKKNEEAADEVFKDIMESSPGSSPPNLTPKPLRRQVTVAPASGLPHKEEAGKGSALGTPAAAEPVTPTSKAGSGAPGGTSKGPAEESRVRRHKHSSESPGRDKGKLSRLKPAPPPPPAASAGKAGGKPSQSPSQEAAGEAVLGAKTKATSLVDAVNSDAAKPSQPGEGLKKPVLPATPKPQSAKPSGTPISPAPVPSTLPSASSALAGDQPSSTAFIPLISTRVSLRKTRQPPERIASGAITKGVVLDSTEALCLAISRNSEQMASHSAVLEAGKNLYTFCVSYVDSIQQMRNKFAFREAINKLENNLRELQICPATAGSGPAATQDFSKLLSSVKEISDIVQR
Sequence of PAK4 (O96013 whole entry): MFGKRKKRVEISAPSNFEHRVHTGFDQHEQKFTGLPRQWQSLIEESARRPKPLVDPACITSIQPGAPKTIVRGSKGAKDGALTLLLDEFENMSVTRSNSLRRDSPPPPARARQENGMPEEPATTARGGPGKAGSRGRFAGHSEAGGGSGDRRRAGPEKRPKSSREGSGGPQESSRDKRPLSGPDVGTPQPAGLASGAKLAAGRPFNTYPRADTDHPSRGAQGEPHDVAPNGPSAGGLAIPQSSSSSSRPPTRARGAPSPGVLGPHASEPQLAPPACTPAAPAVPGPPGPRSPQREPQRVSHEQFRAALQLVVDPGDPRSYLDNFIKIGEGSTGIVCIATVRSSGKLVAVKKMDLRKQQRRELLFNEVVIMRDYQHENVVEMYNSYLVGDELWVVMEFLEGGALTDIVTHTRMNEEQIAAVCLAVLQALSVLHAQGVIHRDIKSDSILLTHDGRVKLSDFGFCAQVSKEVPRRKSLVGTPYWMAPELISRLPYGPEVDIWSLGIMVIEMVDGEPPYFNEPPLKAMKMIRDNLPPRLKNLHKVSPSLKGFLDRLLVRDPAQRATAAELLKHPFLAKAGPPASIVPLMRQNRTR
T7 sequence (P48730 whole entry): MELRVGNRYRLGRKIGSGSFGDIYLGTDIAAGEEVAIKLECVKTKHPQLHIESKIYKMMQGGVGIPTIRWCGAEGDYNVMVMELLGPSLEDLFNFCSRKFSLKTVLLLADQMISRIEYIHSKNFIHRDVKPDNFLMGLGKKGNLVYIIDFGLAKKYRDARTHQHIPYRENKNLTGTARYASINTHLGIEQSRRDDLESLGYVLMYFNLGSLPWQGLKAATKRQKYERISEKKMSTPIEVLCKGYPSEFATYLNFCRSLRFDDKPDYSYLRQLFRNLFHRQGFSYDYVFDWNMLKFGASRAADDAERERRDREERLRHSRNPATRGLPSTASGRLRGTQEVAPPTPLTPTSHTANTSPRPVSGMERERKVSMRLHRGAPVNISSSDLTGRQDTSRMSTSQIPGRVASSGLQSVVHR
T4 sequence (O14920 whole entry): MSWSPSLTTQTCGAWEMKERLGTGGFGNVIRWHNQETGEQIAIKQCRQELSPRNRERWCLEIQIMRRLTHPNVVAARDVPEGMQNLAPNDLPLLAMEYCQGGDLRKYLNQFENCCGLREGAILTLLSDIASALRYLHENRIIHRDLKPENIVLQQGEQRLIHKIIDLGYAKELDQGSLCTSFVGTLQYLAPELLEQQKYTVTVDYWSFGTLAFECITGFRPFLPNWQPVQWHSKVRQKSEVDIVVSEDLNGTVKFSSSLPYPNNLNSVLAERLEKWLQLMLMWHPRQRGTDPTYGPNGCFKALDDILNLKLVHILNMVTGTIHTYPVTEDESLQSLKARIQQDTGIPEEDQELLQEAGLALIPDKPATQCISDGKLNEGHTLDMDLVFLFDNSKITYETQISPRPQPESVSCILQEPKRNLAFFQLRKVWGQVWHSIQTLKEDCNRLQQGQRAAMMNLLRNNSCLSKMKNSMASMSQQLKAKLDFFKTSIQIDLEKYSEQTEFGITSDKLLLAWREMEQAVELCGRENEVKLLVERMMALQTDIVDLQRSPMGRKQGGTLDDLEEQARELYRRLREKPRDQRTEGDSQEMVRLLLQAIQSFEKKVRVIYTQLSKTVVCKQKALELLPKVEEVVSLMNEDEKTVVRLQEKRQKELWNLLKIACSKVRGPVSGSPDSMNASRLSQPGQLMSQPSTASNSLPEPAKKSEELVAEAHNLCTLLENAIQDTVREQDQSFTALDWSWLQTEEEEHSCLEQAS

Compound: O=C(O)c1sc2cc(F)sc2c1Cl [PF-07208254, 3-chloro-5-fluorothieno[3,2-b]thiophene-2-carboxylic acid]
- ATP = 1 mM % Inhibition PF-07208254 (PAK4): 0.9%
- ATP = Km % Inhibition PF-07208254 (PAK4): 6.0%
- ATP = 1 mM % Inhibition PF-07208254 (PIM2): -5.2%
- ATP = Km % Inhibition PF-07208254 (PIM2): 22.3%
- ATP = 1 mM % Inhibition PF-07208254 (ABL1): -0.5%
- ATP = Km % Inhibition PF-07208254 (ABL1): 9.0%
- ATP = Km % Inhibition PF-07208254 (Rsk1): 3.3%
- ATP = Km % Inhibition PF-07208254 (Misshapen-like Kinase 1): -3.3%
- ATP = 100 uM % Inhibition PF-07208254 (JNK2): -3.0%
- ATP = Km % Inhibition PF-07208254 [1]: 4.8%
- ATP = Km % Inhibition PF-07208254 (NUAK1): 10.3%
- ATP = 1 mM % Inhibition PF-07208254 (AURKA): -2.6%
- ATP = Km % Inhibition PF-07208254 (AURKA): 9.4%
- ATP = 1 mM % Inhibition PF-07208254 (MAPK1): 2.8%
- ATP = Km % Inhibition PF-07208254 (MAPK1): 9.4%
- ATP = Km % Inhibition PF-07208254 [2]: 1.8%
- ATP = Km % Inhibition PF-07208254 (PIK3CB): 3.1%
- ATP = 1 mM % Inhibition PF-07208254 (CSNK2A2): 7.3%
- ATP = Km % Inhibition PF-07208254 (CSNK2A2): 24.5%
- ATP = Km % Inhibition PF-07208254 (CKI-delta): 9.1%
- ATP = Km % Inhibition PF-07208254 (ROCK2): -5.8%
- ATP = 1 mM % Inhibition PF-07208254 (IRAK4): -2.1%
- ATP = Km % Inhibition PF-07208254 (IRAK4): 6.2%
- ATP = 1 mM % Inhibition PF-07208254 (LCK): 9.9%
- ATP = Km % Inhibition PF-07208254 (LCK): 20.6%
- ATP = 1 mM % Inhibition PF-07208254 (CHEK2): -0.7%
- ATP = Km % Inhibition PF-07208254 (CHEK2): 6.7%
- ATP = Km % Inhibition PF-07208254 (MARK3): 5.0%

Compound: CCC1(COc2ccc(-c3csc(-c4ccccc4C(=O)O)n3)cn2)CC1 [PF-07247685, 2-(4-{6-[(1-ethylcyclopropyl)methoxy]pyridin-3-yl}-1,3-thiazol-2-yl)benzoic acid]
- ATP = 1 mM % Inhibition PF-07247685 (PAK4): 3.7%
- ATP = Km % Inhibition PF-07247685 (PAK4): 8.3%
- ATP = 1 mM % Inhibition PF-07247685 (PIM2): 0.9%
- ATP = Km % Inhibition PF-07247685 (PIM2): 0.1%
- ATP = 1 mM % Inhibition PF-07247685 (ABL1): 0.9%
- ATP = Km % Inhibition PF-07247685 (ABL1): 5.1%
- ATP = Km % Inhibition PF-07247685 (Rsk1): 2.4%
- ATP = Km % Inhibition PF-07247685 (Misshapen-like Kinase 1): 21.9%
- ATP = 100 uM % Inhibition PF-07247685 (JNK2): 4.3%
- ATP = Km % Inhibition PF-07247685 [1]: -0.0%
- ATP = Km % Inhibition PF-07247685 (NUAK1): -18.2%
- ATP = 1 mM % Inhibition PF-07247685 (AURKA): 2.2%
- ATP = Km % Inhibition PF-07247685 (AURKA): 8.9%
- ATP = 1 mM % Inhibition PF-07247685 (MAPK1): 2.4%
- ATP = Km % Inhibition PF-07247685 (MAPK1): 7.0%
- ATP = Km % Inhibition PF-07247685 [2]: 2.2%
- ATP = Km % Inhibition PF-07247685 (PIK3CB): -3.5%
- ATP = 1 mM % Inhibition PF-07247685 (CSNK2A2): 1.9%
- ATP = Km % Inhibition PF-07247685 (CSNK2A2): 7.5%
- ATP = Km % Inhibition PF-07247685 (CKI-delta): 6.0%
- ATP = Km % Inhibition PF-07247685 (ROCK2): 5.5%
- ATP = 1 mM % Inhibition PF-07247685 (IRAK4): 2.9%
- ATP = Km % Inhibition PF-07247685 (IRAK4): -0.9%
- ATP = 1 mM % Inhibition PF-07247685 (LCK): 3.0%
- ATP = Km % Inhibition PF-07247685 (LCK): 5.9%
- ATP = 1 mM % Inhibition PF-07247685 (CHEK2): -0.2%
- ATP = Km % Inhibition PF-07247685 (CHEK2): 3.8%
- ATP = Km % Inhibition PF-07247685 (MARK3): 2.1%

Reference: publication PMC10412597, “Small molecule branched-chain ketoacid dehydrogenase kinase (BDK) inhibitors with opposing effects on BDK protein levels” (Nature Communications, 2023)
